Laboratory results as given in US20050197350A1, “Novel quinoline, tetrahydroquinazoline, and pyrimidine derivatives and methods of treatment related to the use thereof” (TAISHO PHARMACEUTICAL CO., LTD., priority 2003, published 2005).

What follows are molecules tested on MCH receptors (assay: MCH receptor activity class (method not given)). Details: class 1-3 by percent of control at 10^-7 M or IC50.

Structure (SMILES) | class
CN(C)c1ccnc(N[C@H]2CC[C@@H](CNC(=O)Cc3ccc(F)cc3)CC2)n1 [compound 413] | 3 (Class 3 The value of percent of control at 10^−7 M was more than 60% or the value of IC50 was more than 200 nM.)
COc1ccc(CC(=O)NC[C@H]2CC[C@@H](Nc3nccc(N(C)C)n3)CC2)cc1 [compound 414, N-[(cis-4-{[4-(dimethylamino)pyrimidin-2-yl]amino}cyclohexyl)methyl]-2-(4-methoxyphenyl)acetamide] | 2 (Class 2: The value of percent of control at 10^−7 M was from 40% to 60% or the value of IC′50 was from 50 nM to 200 nM.)
Cc1cc(C(=O)NC[C@H]2CC[C@@H](Nc3nccc(N(C)C)n3)CC2)c(C(F)(F)F)o1 [compound 415] | 3 (Class 3 The value of percent of control at 10^−7 M was more than 60% or the value of IC50 was more than 200 nM.)
Cc1cc(C(=O)NC[C@H]2CC[C@@H](Nc3nccc(N(C)C)n3)CC2)c(C)o1 [compound 416] | 3 (Class 3 The value of percent of control at 10^−7 M was more than 60% or the value of IC50 was more than 200 nM.)
CCOc1ccccc1C(=O)NC[C@H]1CC[C@@H](Nc2nccc(N(C)C)n2)CC1 [compound 417] | 3 (Class 3 The value of percent of control at 10^−7 M was more than 60% or the value of IC50 was more than 200 nM.)
CN(C)c1ccnc(N[C@H]2CC[C@@H](CNC(=O)c3ccc(F)c(Cl)c3)CC2)n1 [compound 418] | 3 (Class 3 The value of percent of control at 10^−7 M was more than 60% or the value of IC50 was more than 200 nM.)
Cc1ccc(C(=O)NC[C@H]2CC[C@@H](Nc3nccc(N(C)C)n3)CC2)cc1F [compound 419] | 3 (Class 3 The value of percent of control at 10^−7 M was more than 60% or the value of IC50 was more than 200 nM.)
CN(C)c1ccnc(N[C@H]2CC[C@@H](CNC(=O)CC3CCCC3)CC2)n1 [compound 420] | 3 (Class 3 The value of percent of control at 10^−7 M was more than 60% or the value of IC50 was more than 200 nM.)
COc1cc(OC)cc(C(=O)NC[C@H]2CC[C@@H](Nc3nccc(N(C)C)n3)CC2)c1 [compound 421] | 3 (Class 3 The value of percent of control at 10^−7 M was more than 60% or the value of IC50 was more than 200 nM.)
CN(C)c1ccnc(N[C@H]2CC[C@@H](CNC(=O)c3ccc(C#N)cc3)CC2)n1 [compound 422] | 3 (Class 3 The value of percent of control at 10^−7 M was more than 60% or the value of IC50 was more than 200 nM.)
CN(C)c1ccnc(N[C@H]2CC[C@@H](CNC(=O)c3cc(C(F)(F)F)cc(C(F)(F)F)c3)CC2)n1 [compound 423, N-[(cis-4-{[4-(dimethylamino)pyrimidin-2-yl]amino}cyclohexyl)methyl]-3,5-bis(trifluoromethyl)benzamide] | 2 (Class 2: The value of percent of control at 10^−7 M was from 40% to 60% or the value of IC′50 was from 50 nM to 200 nM.)
CN(C)c1ccnc(N[C@H]2CC[C@@H](CNC(=O)/C=C/c3ccc([N+](=O)[O-])cc3)CC2)n1 [compound 424] | 1 (Class 1: The value of percent of control at 10^−7 M was less than 40% or the value of IC50 was less than 50 nM.)
CN(C)c1ccnc(N[C@H]2CC[C@@H](CNC(=O)Cc3ccccc3Br)CC2)n1 [compound 425] | 2 (Class 2: The value of percent of control at 10^−7 M was from 40% to 60% or the value of IC′50 was from 50 nM to 200 nM.)
Cc1cc(C(=O)NC[C@H]2CC[C@@H](Nc3nccc(N(C)C)n3)CC2)ccc1F [compound 426] | 3 (Class 3 The value of percent of control at 10^−7 M was more than 60% or the value of IC50 was more than 200 nM.)
CN(C)c1ccnc(N[C@H]2CC[C@@H](CNC(=O)c3ccccc3SC(F)F)CC2)n1 [compound 427] | 3 (Class 3 The value of percent of control at 10^−7 M was more than 60% or the value of IC50 was more than 200 nM.)
CN(C)c1ccnc(N[C@H]2CC[C@@H](CNC(=O)c3cc(Cl)sc3Cl)CC2)n1 [compound 428] | 3 (Class 3 The value of percent of control at 10^−7 M was more than 60% or the value of IC50 was more than 200 nM.)
CCCSc1ncccc1C(=O)NC[C@H]1CC[C@@H](Nc2nccc(N(C)C)n2)CC1 [compound 429] | 2 (Class 2: The value of percent of control at 10^−7 M was from 40% to 60% or the value of IC′50 was from 50 nM to 200 nM.)
CN(C)c1ccnc(N[C@H]2CC[C@@H](CNC(=O)c3cc(C(C)(C)C)nn3Cc3ccccc3)CC2)n1 [compound 430] | 3 (Class 3 The value of percent of control at 10^−7 M was more than 60% or the value of IC50 was more than 200 nM.)
CN(C)c1ccnc(N[C@H]2CC[C@@H](CNC(=O)c3cc(C(C)(C)C)nn3C)CC2)n1 [compound 431] | 3 (Class 3 The value of percent of control at 10^−7 M was more than 60% or the value of IC50 was more than 200 nM.)
C/C(=C\c1ccccc1)C(=O)NC[C@H]1CC[C@@H](Nc2nccc(N(C)C)n2)CC1 [compound 432] | 3 (Class 3 The value of percent of control at 10^−7 M was more than 60% or the value of IC50 was more than 200 nM.)
CN(C)c1ccnc(N[C@H]2CC[C@@H](CNC(=O)c3cncc(Br)c3)CC2)n1 [compound 433] | 3 (Class 3 The value of percent of control at 10^−7 M was more than 60% or the value of IC50 was more than 200 nM.)
CN(C)c1ccnc(N[C@H]2CC[C@@H](CNC(=O)Cc3cccc4ccccc34)CC2)n1 [compound 434] | 1 (Class 1: The value of percent of control at 10^−7 M was less than 40% or the value of IC50 was less than 50 nM.)
Cc1cc(C(=O)NC[C@H]2CC[C@@H](Nc3nccc(N(C)C)n3)CC2)nn1C(C)(C)C [compound 435, 1-tert-butyl-N-[(cis-4-{[4-(dimethylamino)pyriniidin-2-yl]amino}cyclohexyl)methyl]-5-methyl-1H-pyrazole-3-carboxamide] | 3 (Class 3 The value of percent of control at 10^−7 M was more than 60% or the value of IC50 was more than 200 nM.)
CN(C)c1ccnc(N[C@H]2CC[C@@H](CNC(=O)c3csc4ccccc34)CC2)n1 [compound 436] | 3 (Class 3 The value of percent of control at 10^−7 M was more than 60% or the value of IC50 was more than 200 nM.)
CN(C)c1ccnc(N[C@H]2CC[C@@H](CNC(=O)c3ccc(-c4ccccc4)cc3)CC2)n1 [compound 437] | 3 (Class 3 The value of percent of control at 10^−7 M was more than 60% or the value of IC50 was more than 200 nM.)
CN(C)c1ccnc(N[C@H]2CC[C@@H](CNC(=O)c3ccccc3Br)CC2)n1 [compound 438] | 3 (Class 3 The value of percent of control at 10^−7 M was more than 60% or the value of IC50 was more than 200 nM.)
CN(C)c1ccnc(N[C@H]2CC[C@@H](CNC(=O)c3c(Cl)cccc3Cl)CC2)n1 [compound 439] | 3 (Class 3 The value of percent of control at 10^−7 M was more than 60% or the value of IC50 was more than 200 nM.)

Same assay, conditions: class by percent of control at 10^-7 M or IC50

Structure (SMILES) | class
CN(C)c1ccnc(N[C@H]2CC[C@@H](CNC(=O)c3cccs3)CC2)n1 [compound 397] | 3 (Class 3 The value of percent of control at 10^−7 M was more than 60% or the value of IC50 was more than 200 nM.)
CN(C)c1ccnc(N[C@H]2CC[C@@H](CNC(=O)Cc3cccs3)CC2)n1 [compound 398] | 3 (Class 3 The value of percent of control at 10^−7 M was more than 60% or the value of IC50 was more than 200 nM.)
CN(C)c1ccnc(N[C@H]2CC[C@@H](CNC(=O)c3cccc(OC(F)(F)F)c3)CC2)n1 [compound 399] | 3 (Class 3 The value of percent of control at 10^−7 M was more than 60% or the value of IC50 was more than 200 nM.)
CN(C)c1ccnc(N[C@H]2CC[C@@H](CNC(=O)OCc3ccccc3)CC2)n1 [compound 400] | 3 (Class 3 The value of percent of control at 10^−7 M was more than 60% or the value of IC50 was more than 200 nM.)
CN(C)c1ccnc(N[C@H]2CC[C@@H](CNC(=O)OCc3ccc([N+](=O)[O-])cc3)CC2)n1 [compound 401] | 3 (Class 3 The value of percent of control at 10^−7 M was more than 60% or the value of IC50 was more than 200 nM.)
Cc1cc(C(=O)NC[C@H]2CC[C@@H](Nc3nccc(N(C)C)n3)CC2)ccc1Br [compound 402] | 3 (Class 3 The value of percent of control at 10^−7 M was more than 60% or the value of IC50 was more than 200 nM.)
CN(C)c1ccnc(N[C@H]2CC[C@@H](CNC(=O)c3cccc(I)c3)CC2)n1 [compound 403] | 3 (Class 3 The value of percent of control at 10^−7 M was more than 60% or the value of IC50 was more than 200 nM.)
CN(C)c1ccnc(N[C@H]2CC[C@@H](CNC(=O)c3cccc(Cl)c3F)CC2)n1 [compound 404] | 3 (Class 3 The value of percent of control at 10^−7 M was more than 60% or the value of IC50 was more than 200 nM.)
Cc1ccc(C(=O)NC[C@H]2CC[C@@H](Nc3nccc(N(C)C)n3)CC2)c(F)c1F [compound 405] | 3 (Class 3 The value of percent of control at 10^−7 M was more than 60% or the value of IC50 was more than 200 nM.)
CN(C)c1ccnc(N[C@H]2CC[C@@H](CNC(=O)c3ccc(F)cc3Cl)CC2)n1 [compound 406] | 3 (Class 3 The value of percent of control at 10^−7 M was more than 60% or the value of IC50 was more than 200 nM.)
CN(C)c1ccnc(N[C@H]2CC[C@@H](CNC(=O)c3ccc(F)c(Cl)c3F)CC2)n1 [compound 407] | 3 (Class 3 The value of percent of control at 10^−7 M was more than 60% or the value of IC50 was more than 200 nM.)
CN(C)c1ccnc(N[C@H]2CC[C@@H](CNC(=O)CSc3ccccc3)CC2)n1 [compound 408] | 3 (Class 3 The value of percent of control at 10^−7 M was more than 60% or the value of IC50 was more than 200 nM.)
CN(C)c1ccnc(N[C@H]2CC[C@@H](CNC(=O)c3cccc(C(F)(F)F)c3F)CC2)n1 [compound 409] | 3 (Class 3 The value of percent of control at 10^−7 M was more than 60% or the value of IC50 was more than 200 nM.)
CN(C)c1ccnc(N[C@H]2CC[C@@H](CNC(=O)c3cc(C(F)(F)F)ccc3F)CC2)n1 [compound 410] | 3 (Class 3 The value of percent of control at 10^−7 M was more than 60% or the value of IC50 was more than 200 nM.)
COc1cccc(CC(=O)NC[C@H]2CC[C@@H](Nc3nccc(N(C)C)n3)CC2)c1 [compound 412] | 2 (Class 2: The value of percent of control at 10^−7 M was from 40% to 60% or the value of IC′50 was from 50 nM to 200 nM.)
